US11299488B2, “Five membered-aminoheterocycle and 5,6-or 6,6-membered bicyclic aminoheterocyclic inhibitors of rock for the treatment of heart failure” (BRISTOL-MYERS SQUIBB COMPANY, priority 2017, dated 2022)

target: ROCK2 (Homo sapiens (Human), UniProt O75116); assay: ROCK assay (Caliper LABCHIP peptide phosphorylation, 5 μM ATP); format: biochemical
Protocol: The effectiveness of compounds of the present invention as ROCK inhibitors can be determined in a 30 μL assay containing 20 mM HEPES, pH 7.5, 20 mM MgCl2, 0.015% Brij-35, 4 mM DTT, 5 μM ATP and 1.5 μM peptide substrate (FITC-AHA-AKRRRLSSLRA-OH) (SEQ ID No. 1). Compounds were dissolved in DMSO so that the final concentration of DMSO was <2%, and the reaction was initiated with Rho kinase variants. After incubation, the reaction was terminated by the addition of EDTA and the phosphorylated and non-phosphorylated peptides separated using a LABCHIP® 3000 Reader (Caliper Life Sciences). […] Compounds were tested in dose-response format, and the inhibition of kinase activity was calculated at each concentration of compound. The inhibition data were fit using a curve-fitting program to determine the IC50; i.e., the concentration of compound required to inhibit 50% of kinase activity. Representative Examples were tested in the ROCK assay described above and found having ROCK inhibitory activity. A range of ROCK inhibitory activity (IC50 values) of ≤50 μM (50000 nM) was observed. Table A below lists the ROCK IC50 values measured for the following examples.

Sequence of ROCK2 (O75116 whole entry, species assumed): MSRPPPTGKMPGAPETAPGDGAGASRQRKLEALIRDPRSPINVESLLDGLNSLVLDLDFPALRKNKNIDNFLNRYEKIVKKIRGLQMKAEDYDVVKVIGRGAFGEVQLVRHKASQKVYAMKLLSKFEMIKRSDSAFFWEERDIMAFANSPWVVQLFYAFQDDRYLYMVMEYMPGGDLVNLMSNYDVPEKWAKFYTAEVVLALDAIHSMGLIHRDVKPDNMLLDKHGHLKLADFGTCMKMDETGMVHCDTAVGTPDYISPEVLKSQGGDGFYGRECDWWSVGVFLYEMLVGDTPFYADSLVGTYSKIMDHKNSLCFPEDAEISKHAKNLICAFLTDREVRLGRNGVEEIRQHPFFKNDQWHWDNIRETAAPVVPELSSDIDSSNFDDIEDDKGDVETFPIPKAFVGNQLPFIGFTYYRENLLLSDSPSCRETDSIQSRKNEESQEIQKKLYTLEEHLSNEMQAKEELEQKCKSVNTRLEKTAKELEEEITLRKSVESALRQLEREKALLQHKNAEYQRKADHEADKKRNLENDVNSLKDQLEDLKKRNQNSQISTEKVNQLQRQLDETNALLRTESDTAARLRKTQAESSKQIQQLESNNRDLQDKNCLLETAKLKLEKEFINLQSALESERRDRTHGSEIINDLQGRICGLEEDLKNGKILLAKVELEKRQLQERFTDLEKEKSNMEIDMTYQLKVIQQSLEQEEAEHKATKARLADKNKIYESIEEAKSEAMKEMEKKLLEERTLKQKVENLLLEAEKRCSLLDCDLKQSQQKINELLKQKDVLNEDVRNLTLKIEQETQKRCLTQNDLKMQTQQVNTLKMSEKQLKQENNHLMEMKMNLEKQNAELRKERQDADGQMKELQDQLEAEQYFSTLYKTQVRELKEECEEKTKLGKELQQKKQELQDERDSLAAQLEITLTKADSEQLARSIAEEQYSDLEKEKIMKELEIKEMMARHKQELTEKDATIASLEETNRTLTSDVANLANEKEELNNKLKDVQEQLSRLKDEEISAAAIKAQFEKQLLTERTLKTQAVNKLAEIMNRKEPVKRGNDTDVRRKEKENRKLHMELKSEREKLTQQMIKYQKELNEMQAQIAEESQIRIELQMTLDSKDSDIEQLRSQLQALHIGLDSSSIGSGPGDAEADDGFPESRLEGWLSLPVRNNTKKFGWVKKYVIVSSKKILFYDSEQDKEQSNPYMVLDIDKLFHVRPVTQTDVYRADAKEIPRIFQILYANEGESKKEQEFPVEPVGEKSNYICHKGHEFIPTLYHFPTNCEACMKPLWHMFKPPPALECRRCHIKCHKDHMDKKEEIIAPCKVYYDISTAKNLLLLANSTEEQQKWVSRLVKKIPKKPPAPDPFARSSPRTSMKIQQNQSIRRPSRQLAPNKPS

Row | IC50 | Structure (SMILES)
1 | 128 nM | NC(=O)c1cccnc1O[C@H]1C[C@@]2(C[C@H](Nc3ncnc4ccc(F)cc34)C2)C1 (stereo partly drawn) [Example 26, 2-(((2S,4s,6S)-6-((6-fluoro-quinazolin-4-yl)amino)spiro[3.3]heptan-2-yl)oxy) nicotinamide]
2 | 62 nM | COc1ccc2ncnc(N[C@H]3C[C@]4(C3)C[C@H](Oc3ncccc3C(N)=O)C4)c2c1 (some centres unmarked) [Example 23]
3 | 326 nM | NC(=O)c1cccnc1O[C@H]1C[C@@]2(C[C@H](Nc3nnc(-c4ccc(F)c(F)c4)o3)C2)C1 (stereo partly drawn) [Example 18, 2-(((2S,4s,6S)-6-((5-(3,4-difluorophenyl)-1,3,4-oxadiazol-2-yl)amino)spiro[3.3]heptan-2-yl)oxy)nicotinainide]
4 | 110 nM | NC(=O)c1cccnc1O[C@H]1C[C@@]2(C[C@H](Nc3nc4c(F)cccc4o3)C2)C1 (stereo partly drawn) [Example 6, 2-(((2S,4s,6S)-6-((4-fluorobenzo[d]oxazol-2-yl)amino)spiro[3.3]heptan-2-yl)oxy)nicotinamide]
5 | 235 nM | NC(=O)c1cccnc1O[C@H]1C[C@@]2(C[C@H](Nc3ncc4ccc(F)cc4n3)C2)C1 (stereo partly drawn) [Example 30, 2-(((2S,4s,6S)-6-((7-fluoro-quinazolin-2-yl)amino)spiro[3.3]heptan-2-yl)oxy) nicotinamide]
6 | 87 nM | [H][C@]1(Oc2ncccc2C(N)=O)C[C@]2(C[C@@H](Nc3nccc(-c4cccc(C#N)c4)n3)C2)C1 (stereo partly drawn) [Example 52, 2-(((2S,4s,6S)-6-((4-(3-cyanophenyl)pyrimidin-2-yl)amino)spiro[3.3]heptan-2-yl)oxy) nicotinamide]
7 | 1100 nM | [H][C@]1(Oc2ncccc2C(N)=O)C[C@]2(C[C@@H](Nc3nccc(-c4ccc(C(=O)N(C)C)cc4)n3)C2)C1 (stereo partly drawn) [Example 50, 2-(((2S,4s,6S)-6-((4-(4-(dimethyl-carbamoyl)phenyl)pyrimidin-2-yl)amino)spiro[3.3]heptan-2-yl)oxy) nicotinamide]
8 | 47 nM | Cc1ccc2c(N[C@H]3C[C@]4(C3)C[C@H](Oc3ncccc3C(N)=O)C4)nccc2c1 (stereo partly drawn) [Example 31, 2-(((2S,4s, 6S)-6-((6-methyl-isoquinolin-1-yl)amino)spiro [3.3]heptan-2-yl)oxy) nicotinamide]
9 | 156 nM | NC(=O)c1cccnc1O[C@H]1C[C@@]2(C[C@H](Nc3nc4ccc(F)cc4s3)C2)C1 (stereo partly drawn) [Example 2, 2-(((2S,4s,6S)-6-((6-fluorobenzo[d]thiazol-2-yl)amino)spiro[3.3]heptan-2-yl)oxy)nicotinamide]
10 | 148 nM | NC(=O)c1cccnc1O[C@H]1C[C@@]2(C[C@H](Nc3cnc4ccc(F)cc4n3)C2)C1 (stereo partly drawn) [Example 22, 2-(((2S,4s,6S)-6-((7-fluoro-quinoxalin-2-yl)amino)spiro[3.3]heptan-2-yl)oxy) nicotinamide]
11 | 115 nM | COc1ccc(-c2csc(N[C@H]3C[C@]4(C3)C[C@H](Oc3ncccc3C(N)=O)C4)n2)cc1 (stereo partly drawn) [Example 8, 2-(((2S,4s,6S)-6-((4-(4-methoxyphenyl)thiazol-2-yl)amino)spiro[3.3]heptan-2-yl)oxy)nicotinamide]
12 | 284 nM | [H][C@]1(Oc2ncccc2C(N)=O)C[C@]2(C[C@@H](Nc3nccc(-c4cccc(C(=O)N(C)C)c4)n3)C2)C1 (stereo partly drawn) [Example 53, 2-(((2S,4s,6S)-6-((4-(3-(dimethyl-carbamoyl)phenyl)pyrimidin-2-yl)amino)spiro[3.3]heptan-2-yl)oxy) nicotinamide]
13 | 1070 nM | [H][C@]1(Oc2ncccc2C(N)=O)C[C@]2(C[C@@H](Nc3ccnc(-c4cccc(C#N)c4)n3)C2)C1 (stereo partly drawn) [Example 66, 2-(((2S,4s,6S)-6-((2-(3-cyanophenyl)pyrimidin-4-yl)amino)spiro[3.3]heptan-2-yl)oxy)nicotinamide]
14 | 149 nM | [H][C@]1(Oc2ncccc2C(N)=O)C[C@]2(C[C@@H](Nc3nccc(-c4cccc(F)c4)n3)C2)C1 (stereo partly drawn) [Example 49, 2-(((2S,4s,6S)-6-((4-(3-fluorophenyl)pyrimidin-2-yl)amino)spiro[3.3]heptan-2-yl)oxy) nicotinamide]
15 | 211 nM | [H][C@]1(Oc2ncccc2C(N)=O)C[C@]2(C[C@@H](Nc3nccc(-c4ccc(F)cc4)n3)C2)C1 (stereo partly drawn) [Example 47, 2-(((2S,4s,6S)-6-((4-(4-fluorophenyl)pyrimidin-2-yl)amino)spiro[3.3]heptan-2-yl)oxy) nicotinamide]
16 | 320 nM | Cn1c(N[C@H]2C[C@]3(C2)C[C@H](Oc2ncccc2C(N)=O)C3)nc2c(F)cccc21 (stereo partly drawn) [Example 14, 2-(((2S,4s,6S)-6-((4-fluoro-1-methyl-1H-benzo[d]imidazol-2-yl)amino)spiro[3.3]heptan-2-yl)oxy)nicotinamide]

Row | IC50 | Structure (SMILES)
17 | 258 nM | NC(=O)c1cccnc1O[C@H]1C[C@@]2(C[C@H](Nc3ncc4ccccc4n3)C2)C1 (stereo partly drawn) [Example 28, 2-(((2S,4s, 6S)-6-(quinazolin-2-ylamino)spiro [3.3]heptan-2-yl)oxy) nicotinamide]
18 | 70 nM | NC(=O)c1cccnc1O[C@H]1C[C@@]2(C[C@H](Nc3nnc(-c4ccc(F)cc4)o3)C2)C1 (stereo partly drawn) [Example 17, 2-(((2S,4s,6S)-6-((5-(4-fluorophenyl)-1,3,4-oxadiazol-2-yl)amino)spiro[3.3]heptan-2-yl)oxy)nicotinamide]
19 | 73 nM | NC(=O)c1cccnc1O[C@H]1C[C@@]2(C[C@H](Nc3cnc4cc(F)ccc4n3)C2)C1 (stereo partly drawn) [Example 21, 2-(((2S,4s,6S)-6-((6-fluoroquinoxalin-2-yl)amino)spiro[3.3]heptan-2-yl)oxy)nicotinamide]
20 | 165 nM | [H][C@]1(Oc2ncccc2C(N)=O)C[C@]2(C[C@@H](Nc3nccc(N4CCC(C(F)(F)F)CC4)n3)C2)C1 (stereo partly drawn) [Example 43, 2-(((2S,4s,6S)-6-((4-(4-(trifluoro-methyl)piperidin-1-yl)pyrimidin-2-yl)amino)spiro[3.3]heptan-2-yl)oxy) nicotinainide]
21 | 378 nM | [H][C@]1(Oc2ncccc2C(N)=O)C[C@]2(C[C@@H](Nc3nccc(N4CCC(F)CC4)n3)C2)C1 (stereo partly drawn) [Example 40, 2-(((2S,4s,6S)-6-((4-(4-fluoro-piperidin-1-yl)pyrimidin-2-yl)amino)spiro [3.3]heptan-2-yl)oxy) nicotinamide]
22 | 1170 nM | [H][C@]1(Oc2ncccc2C(N)=O)C[C@]2(C[C@@H](Nc3ccnc(-c4cccc(C(=O)N(C)C)c4)n3)C2)C1 (stereo partly drawn) [Example 67, 2-(((2S,4s,6S)-6-((2-(3-(dimethyl-carbamoyl)phenyl)pyrimidin-4-yl)amino)spiro[3.3]heptan-2-yl)oxy) nicotinamide]
23 | 96 nM | NC(=O)c1cccnc1O[C@H]1C[C@@]2(C[C@H](Nc3nnc(-c4ccc(OC(F)(F)F)cc4)o3)C2)C1 (stereo partly drawn) [Example 16, 2-(((2S,4s,6S)-6-((5-(4-(trifluoromethoxy)phenyl)-1,3,4-oxadiazol-2-yl)amino)spiro[3.3]heptan-2-yl)oxy)nicotinamide]
24 | 103 nM | NC(=O)c1cccnc1O[C@H]1C[C@@]2(C[C@H](Nc3ncnc4cc(Cl)ccc34)C2)C1 (stereo partly drawn) [Example 24, 2-(((2S,4s,6S)-6-((7-chloro-quinazolin-4-yl)amino)spiro[3.3]heptan-2-yl)oxy) nicotinamide]
25 | 204 nM | [H][C@]1(Oc2ncccc2C(N)=O)C[C@]2(C[C@@H](Nc3nccc(-c4ccc(C#N)cc4)n3)C2)C1 (stereo partly drawn) [Example 48, 2-(((2S,4s,6S)-6-((4-(4-cyanophenyl)pyrimidin-2-yl)amino)spiro[3.3]heptan-2-yl)oxy) nicotinamide]
26 | 983 nM | [H][C@]1(Oc2ncccc2C(N)=O)C[C@]2(C[C@@H](Nc3nccc(N4CC(F)(F)C4)n3)C2)C1 (stereo partly drawn) [Example 39, 2-(((2S,4s,6S)-6-((4-(3,3-difluoro-azetidin-1-yl)pyrimidin-2-yl)amino)spiro[3.3]heptan-2-yl)oxy) nicotinamide]
27 | 597 nM | Cn1cc(-c2cccc3sc(N[C@H]4C[C@]5(C4)C[C@H](Oc4ncccc4C(N)=O)C5)nc23)cn1 (stereo partly drawn) [Example 15, 2-(((2S,4s,6S)-6-((4-(l-methyl-1H-pyrazol-4-yl)benzo[d]thiazol-2-yl)amino)spiro[3.3]heptan-2-yl)oxy)nicotinamide]
28 | 165 nM | COc1ccc2c(N[C@H]3C[C@]4(C3)C[C@H](Oc3ncccc3C(N)=O)C4)ncnc2c1 (stereo partly drawn) [Example 25, 2-(((2S,4s,6S)-6-((7-methoxy-quinazolin-4-yl)amino)spiro[3.3]heptan-2-yl)oxy) nicotinamide]
29 | 496 nM | [H][C@]1(Oc2ncccc2C(N)=O)C[C@]2(C[C@@H](Nc3nccc(N4CCCC(F)C4)n3)C2)C1 (stereo partly drawn) [Example 41, 2-(((2S,4s,6S)-6-((4-(3-fluoro-piperidin-1-yl)pyrimidin-2-yl)amino)spiro [3.3]heptan-2-yl)oxy) nicotinamide]
30 | 414 nM | [H][C@]1(Oc2ncccc2C(N)=O)C[C@]2(C[C@@H](Nc3nccc(-c4cccnc4)n3)C2)C1 (stereo partly drawn) [Example 51, 2-(((2S,4s,6S)-6-((4-(pyridin-3-yl)pyrimidin-2-yl)amino)spiro[3.3]heptan-2-yl)oxy) nicotinamide]
31 | 1300 nM | [H][C@]1(Oc2ncccc2C(N)=O)C[C@]2(C[C@@H](Nc3ccnc(N4CC(F)(F)C4)n3)C2)C1 (stereo partly drawn) [Example 68, 2-(((2S,4s,6S)-6-((2-(3,3-difluoro-azetidin-1-yl)pyrimidin-4-yl)amino)spiro[3.3]heptan-2-yl)oxy) nicotinamide]
32 | 105 nM | N#Cc1ccc(-c2cnc(N[C@H]3CC4(C3)C[C@H](Oc3ncccc3C(N)=O)C4)nc2)cc1 (stereo partly drawn) [Example 34, 2-(((2S,4s,6S)-6-((5-(4-cyanophenyl)pyrimidin-2-yl)amino)spiro[3.3]heptan-2-yl)oxy)nicotinamide]
